In patent US12691100B2, “NMT inhibitor treatment of a senescence-associated disease or disorder of the liver” (Imperial College Innovations Limited, priority 2020, dated 2026):

Legend:
[1] = tested on: IMR90 ER:RAS cells; experiment: Unfolded protein response markers (CHOP, XBP1, ATF6) by high throughput microscopy; assay type: cell-based, human; details: 4OHT treated and control cells; FIGS. 13A-D
Procedure: (§1) Immunofluorescence staining was carried out by first fixing wells of 96 well plate at desired timepoint for 1 hour using 4% PFA (w/v, in PBS) followed by washing 3 times with PBS. Wells were then permeabilized using 0.2% Triton® X-100 (v/v, PBS) for 10 min or with 0.5% Triton® X-100 (v/v, PBS) for COPI staining. Wells were then washed twice with PBS to halt permeabilization and then non-specific antibody binding blocked by incubation with a blocking solution for 1 hour at RT. Blocking solution contained 1% BSA (w/v, PBS) supplemented with 0.4% Fish Skin Gelatin (v/v, PBS). Primary antibodies were diluted in respective blocking solution (see ‘Antibodies’ for dilutions), blocking solution removed from well and incubated with primary antibody solution for 1 hour at RT. For BrdU staining primary antibody solution is supplemented with 0.5 U/ul DNase (Sigma) and 1 mM MgCl2 and incubation times reduced to 30 minutes. […]
(§2) High content image analysis was carried out using the InCell Investigator 2.7.3 software (GE Healthcare®). […] Quantification for nuclear staining was measured as average pixel intensity (grey scale) for the wavelength of fluorophore across the area of the nuclear mask. Cytoplasmic staining quantification was of either the average pixel intensity or the coefficient of variance of pixel intensities within collar area. […]

[2] = tested on: IMR90 ER:RAS cells; experiment: Senolytic activity under IRE1 inhibition with KIRA6; assay type: cell-based, human; details: with 600 nM KIRA6, 4OHT treated cells; FIGS. 15A-B
Procedure: High-throughput microscopy survival assay—To assess senolytic effect of drugs, cells were cultured for 7 days, culture media was changed to DM0.5 media and drugs in DMSO were added (<5% v/v final concentration), drugs were replenished after 3 days if assay length was longer than 72 h. Wells were fixed in 4% PFA for 1 hour at day 10 to 14, washed 3 times with PBS and then stained with 1 μg/mL DAPI (w/v, PBS) for 10 minutes. Wells were then washed 3 times with PBS. Optionally plates could be stored at 4° C. for up to 2 weeks and DAPI stained. Image acquisition of DAPI stained cells was performed on an automated InCell Analyser 2000 (GE Healthcare®) and high-content analysis on the InCell Investigator 2.7.3 software used to quantify number of DAPI positive cells per well. A top-hat method was used to segment cell-nuclei based on DAPI stained area and a minimum nuclear area threshold of 80 μm used to exclude debris. For cancer cell lines, nuclear area threshold was reduced to 40 μm. Survival was measured as cell counts relative to DMSO treated quiescent or senescent cells.
To investigate whether the activation of UPR caused by NMT inhibition in senescent cells was responsible for the senolytic potential of NMT inhibitors, cells were treated with KIRA6, a selective inhibitor of IRE1, a kinase necessary for the UPR. IMR90 ER:RAS cells undergoing senescence (after induction with 4OHT), were treated with 600 nM KIRA6 (an IRE1 inhibitor) on day 4 post-induction. On day 7 post-induction, cells were treated with Compound 1 or 2 and 600 nM KIRA6. […] Both NMT inhibitor and Kira6 were replenished 3 days after addition of NMT inhibitor (at day 10 post-induction). Data is shown as mean±SD, n represents independent biological experiments.

[3] = tested on: IMR90 ER:RAS cells; experiment: Intracellular levels of SASP cytokines IL-6 and IL-8 by immunofluorescence; assay type: cell-based, human; details: 4OHT-induced senescent cells; 7 days after addition of the drugs; FIGS. 12A-C
Procedure: as §1, with “RT.” for “RT. For BrdU staining primary antibody solution is supplemented with 0.5 U/ul DNase (Sigma) and 1 mM MgCl2 and incubation times reduced to 30 minutes.”
as §2
The intracellular levels of two SASP components, IL-6 and IL-8 were assessed using stained cells. […]

[4] = tested on: senescent cells; experiment: Senolytic activity in old mice (senescent-associated β-galactosidase staining); assay type: in vivo, C57BL/6J female mice; details: ~26 month female mice, 10 mg/kg i.p., versus vehicle
Procedure: Lung and liver samples frozen in optimal cutting temperature (OCT) were cryosectioned (15 μM) and frozen sections fixed in ice-cold 0.5% Glutaraldehyde (w/v, PBS) for 15 min and washed 1 mM MgCl2/PBS (pH 6.0) for 5 min. β-galactosidase activity was stained for with X-gal staining solution (1 mg ml^−1 X-gal, ThermoFisher Scientific, 5 mM K3(Fe(CN)6), 5 mM K4(Fe(CN)6)) for 18 h at 37° C. Slides were dehydrated and coverslips mounted prior to being imaged using 20× brightfield objective on Zeiss AxioScan Z.1 slide scanner. ImageJ was used to quantify staining by measuring the β-gal stained area as a percentage of the total tissue area excluding luminal spaces.

| Compound | UPR activation (nuclear CHOP, XBP1, ATF6; percentage of cells above threshold) [1] | Dependence of senolytic activity on IRE1 / UPR [2] | Intracellular levels of IL-6 and IL-8 [3] | Senescent cells in livers (senescent-associated β-galactosidase staining) ([4]; FIG. 17B) | Senescent cells in lungs (senescent-associated β-galactosidase staining) ([4]; FIG. 17C) |
| --- | --- | --- | --- | --- | --- |
| Cc1nn(C)c(C)c1CCOc1c(-c2ccc3c(c2)c(CN(C)C)nn3C)ccc(F)c1F [Compound 1, 1-(5-(3,4-difluoro-2-(2-(1,3,5-trimethyl-1H-pyrazol-4-yl)ethoxy)phenyl)-1-methyl-1H-indazol-3-yl)-N,N-dimethylmethanamine] | causes the induction of the unfolded protein response on senescent cells | dependent on IRE1 and the unfolded protein response | selectively resulted in an intracellular accumulation of these cytokines on senescent cells |  |  |
| Cc1c(NS(=O)(=O)c2c(Cl)cc(-c3ccnc(N4CCNCC4)c3)cc2Cl)c(CC(C)C)nn1C [Compound 2] | causes the induction of the unfolded protein response on senescent cells | dependent on IRE1 and the unfolded protein response | selectively resulted in an intracellular accumulation of these cytokines on senescent cells | lower levels of senescent cells | lower levels of senescent cells |
